Read-outs that look alike come from different tables or passages of the source.
Tests used:
Type in all cases: biochemical
Factor Xa = biological target: T1, Factor Xa (Homo sapiens, UniProt P00742); experiment: In vitro inhibition of purified factor Xa (hydrolysis of Bz-Ile-Glu-Gly-Arg-pNa); details: purified enzyme, 10 nM factor Xa, 26 μM substrate, pH 7.5, 37° C.
T1 construct: purchased Enzyme Research Laboratories, Inc
Description: (§1) The ability of the compounds of the present invention to act as inhibitors of thrombin, factor Xa and plasmin catalytic activity was assessed by determining the concentration that inhibited enzyme activity by 50% using purified human enzymes. The concentration of added inhibitor that caused a 50% decrease in the initial rate of hydrolysis was defined as the IC50 value.
(§2) All assays are based on the ability of the test compound to inhibit the hydrolysis of a peptide p-nitroanilide substrate. In a typical experiment, appropriate substrate is prepared in DMSO, and diluted into an assay buffer consisting of 50 mM HEPES and 130 mM NaCl at a pH of 7.5. The final concentration for each of the substrates is listed below. All substrate concentrations are at least 10 fold lower than Km to insure inhibition is competitive. Test compounds are prepared as 1 mg/mL solutions in DMSO, and three additional 10-fold dilutions in DMSO are prepared. Enzyme solutions are prepared at the concentrations listed below in assay buffer.
(§3) In a typical IC50 determination, into each well of a 96 well plate is pipetted 280 μL of substrate solution, 10 μL of inhibitor solution, and the plate is allowed to thermally equilibrate at 37° C. in a Molecular Devices Plate Reader for at least 10 minutes. Reactions are initiated by the addition of a 20 μL aliquot of enzyme, and the absorbance increase at 405 nm is recorded for 15 minutes. Data corresponding to less than 10% of the total substrate hydrolysis is used in the calculations. The ratio of the velocity (rate of the change in absorbance as a function of time) for a sample containing no inhibitor is divided by the velocity of a sample containing inhibitor, and is plotted as a function of inhibitor concentration. The inverse of the slope is the concentration of inhibitor which produces a 50% decrease in activity of the enzyme. This concentration is referred to as the IC50.
Factor Xa activity was assessed as the ability to hydrolyze the substrate Bz-Ile-Glu-Gly-Arg-pNa, and was obtained from Sigma. Substrate solutions were prepared at a concentration of 26 μM (26 μM<<Km =1.3 mM) in assay buffer. Final DMSO concentration was 0.3%. Activated factor Xa was obtained from Enzyme Research Laboratories, Inc., and was diluted into assay buffer to a concentration of 1.2 μM. Final reagent concentrations were: [Factor Xa]=10 nM, [Bz-Ile-Glu-Gly-Arg-pNa]=26 μM, [inhibitor]=60to 0.06 μM.

human α-thrombin = human α-thrombin (Homo sapiens, UniProt P00734); experiment: In vitro inhibition of purified thrombin (hydrolysis of Bz-Phe-Val-Arg-pNa); details: for IC50: purified human α-thrombin 36 nM, pH 7.5, 37° C.; for inhibition at 60 µM: at 60 μM inhibitor
Description: as §1, §2, §3
Thrombin activity was assessed as the ability to hydrolyze the substrate N-benzoyl-Phe-Val-Arg-p-nitroanilide (Bz-Phe-Val-Arg-pNa), and was obtained from Sigma Chemical Company (St. Louis, Mo.). Substrate solutions were prepared at a concentration of 60 μM (60 μM<<Km =1.2 mM) in assay buffer. Final DMSO concentration was 0.3%. […] Final reagent concentrations were: [thrombin]=36 nM, [Bz-Phe-Val-Arg-pNa]=[…], [inhibitor]=60 to 0.06 μM.

human plasmin = human plasmin (Homo sapiens, UniProt P00747); experiment: In vitro inhibition of purified plasmin (hydrolysis of Tos-Gly-Pro-Lys-pNa); details: for inhibition at 60 µM: at 60 μM inhibitor
Description: as §1, §2, §3
Plasmin activity was assessed as the ability to hydrolyze the substrate Tos-Gly-Pro-Lys-pNa, and was obtained from Sigma. Substrate solutions were prepared at a concentration of 22 μM (22 μM<<Km =240 μM) in assay buffer. Final DMSO concentration was 0.3%. Purified human plasmin was obtained from Enzyme Research Laboratories Inc, and was diluted into assay buffer to a concentration of 1.2 μM. Final reagent concentrations were: [plasmin]=15 nM, […], [inhibitor]=60 to 0.06 μM.

[1] = purified human plasmin 15 nM, pH 7.5, 37° C., read-out: Plasmin Inhibition (IC50)

T1 sequence (P00742 235-488 limits assumed): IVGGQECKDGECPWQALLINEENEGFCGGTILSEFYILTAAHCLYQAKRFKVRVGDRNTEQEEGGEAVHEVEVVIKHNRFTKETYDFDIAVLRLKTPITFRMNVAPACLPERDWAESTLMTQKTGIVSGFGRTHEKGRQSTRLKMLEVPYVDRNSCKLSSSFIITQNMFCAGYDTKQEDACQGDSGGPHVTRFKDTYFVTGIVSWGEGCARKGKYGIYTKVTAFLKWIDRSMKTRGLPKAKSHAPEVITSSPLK
T1 sequence (P00742 41-179 partner limits assumed): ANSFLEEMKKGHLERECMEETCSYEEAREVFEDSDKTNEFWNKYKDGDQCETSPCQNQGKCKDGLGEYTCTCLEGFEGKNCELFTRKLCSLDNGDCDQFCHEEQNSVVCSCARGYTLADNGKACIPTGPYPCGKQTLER
human plasmin, sequence (P00747 581-810 limits assumed): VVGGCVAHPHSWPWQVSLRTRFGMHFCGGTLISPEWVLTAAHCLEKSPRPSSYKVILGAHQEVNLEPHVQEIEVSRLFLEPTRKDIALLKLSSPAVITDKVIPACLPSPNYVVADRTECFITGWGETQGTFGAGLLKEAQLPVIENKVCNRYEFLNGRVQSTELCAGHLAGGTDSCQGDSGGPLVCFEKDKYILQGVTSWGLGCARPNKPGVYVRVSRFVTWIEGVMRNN
human plasmin, sequence (P00747 97-580 partner limits assumed): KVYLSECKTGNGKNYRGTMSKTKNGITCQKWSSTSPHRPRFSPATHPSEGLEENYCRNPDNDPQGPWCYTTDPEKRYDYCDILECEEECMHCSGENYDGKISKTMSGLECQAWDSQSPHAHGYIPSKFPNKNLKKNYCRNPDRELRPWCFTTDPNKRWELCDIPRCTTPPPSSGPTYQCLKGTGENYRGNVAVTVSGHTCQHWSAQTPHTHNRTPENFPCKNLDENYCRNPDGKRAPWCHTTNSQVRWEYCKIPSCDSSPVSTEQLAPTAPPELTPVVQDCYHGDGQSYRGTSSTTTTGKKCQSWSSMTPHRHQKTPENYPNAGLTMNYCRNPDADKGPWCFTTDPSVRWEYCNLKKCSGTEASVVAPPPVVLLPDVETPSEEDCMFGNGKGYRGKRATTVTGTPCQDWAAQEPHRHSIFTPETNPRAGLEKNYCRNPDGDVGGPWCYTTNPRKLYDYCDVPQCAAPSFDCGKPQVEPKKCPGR

## O=C(NCC(O)c1cccc(O)c1)c1cccc(NS(=O)(=O)c2ccc3ccccc3c2)c1 (stereo not drawn) [Compound 14, 3-[(2-Naphthalenylsulfonyl)amino]-N-[2-hydroxy-2-(3'-hydroxyphenyl)ethyl]benzamide]
Factor Xa
  IC50: 11.4 µM
Human α-thrombin
  IC50: 87 µM
Human plasmin
  IC50: 86.1 µM

## CN(C)c1ccc(CNC(=O)c2cccc(NS(=O)(=O)c3ccc4ccccc4c3)c2)cc1 [Compound 16]
Factor Xa
  IC50: 3.2 µM
Human α-thrombin
  IC50: 52.8 µM
Human plasmin
  inhibition at 60 µM: 0%

## COc1cc(CNC(=O)c2cccc(NS(=O)(=O)c3ccccc3)c2)ccc1O [Compound 20, 3-[(Phenylsulfonyl)amino]-N-[(4-hydroxy-3-methoxyphenyl)methyl]benzamide]
Factor Xa
  IC50: 19.2 µM
Human α-thrombin
  inhibition at 60 µM: 0%
Human plasmin; [1]
  IC50: 5.8 µM

## COc1cc(C(O)CNC(=O)c2cccc(NS(=O)(=O)c3ccccc3)c2)ccc1O (stereo not drawn) [Compound 22, 3-[(Phenylsulfonyl)amino]-N-[2-hydroxy-2-(4'-hydroxy-3'-methoxyphenyl)ethyl]benzamide]
Factor Xa
  IC50: 20.8 µM
Human α-thrombin
  IC50: 38.3 µM
Human plasmin
  inhibition at 60 µM: 0%

## O=C(NCCc1ccccn1)c1cccc(NS(=O)(=O)c2ccc3ccccc3c2)c1 [Compound 27]
Factor Xa
  IC50: 2 µM
Human α-thrombin
  IC50: 294 µM
Human plasmin
  inhibition at 60 µM: 0%

## CN(C)c1ccc(CNC(=O)c2cccc(NS(=O)(=O)c3cccc(N)c3)c2)cc1 [Compound 31, 3-[(3'-Aminophenylsulfonyl)amino]-N-[4'-[(N', N'-dimethylamino)phenyl]methyl]benzamide]
Factor Xa
  IC50: 16.5 µM
Human α-thrombin
  inhibition at 60 µM: 0%
Human plasmin; [1]
  IC50: 15.2 µM

## NCCCCCNC(=O)c1cccc(NS(=O)(=O)c2ccc3ccccc3c2)c1 [Compound 32, 3-[(2-Naphthalenylsulfonyl)amino]-N-(5-aminopentyl)benzamide]
Factor Xa
  IC50: 7.6 µM
Human α-thrombin
  inhibition at 60 µM: 0%
Human plasmin
  inhibition at 60 µM: 0%
